This is an account of results in patent publication US9757427B2, “Combination comprising zidovudine and polymyxin” (HELPERBY THERAPEUTICS LIMITED, priority 2013, dated 2017).

The subject of experiment [1] is log phase Escherichia coli and Klebsiella pneumoniae. Description: chequerboard method, MIC alone and in combination, log phase bacteria. The experiment is classed as cell-based. Particulars: for MIC before combination: single agent, chequerboard. An excerpt:
In relation to (b) above, methods for determining activity against log phase bacteria include a determination, under standard conditions (i.e. conditions known to those skilled in the art, such as those described in WO 2005014585, the disclosures of which document are hereby incorporated by reference), of Minimum Inhibitory Concentration (“MIC”) or Minimum Bactericidal Concentration (“MBC”) for a test compound. Specific examples of such methods are described below. In Vitro Activity of Zidovudine Combined Together with Colistin Against Log Phase Escherichia coli and Klebsiella pneumoniae Using Chequerboard Method

A further experiment deals with log phase Klebsiella. Description: time kill curve against log phase Klebsiella. The experiment is classed as cell-based.

For Colistin, the “MIC of colistin in combination” value in experiment [1] (combined with 2 μg/ml of HT0120663) was 0.25 mg/L. The MIC before combination in experiment [1] came to 4 mg/L. Also, the time kill outcome in the experiment on log phase Klebsiella (Colistin at 16 μg/ml) is listed as “inhibition up to 6 hours”.
In the case of `Cc1cn([C@H]2C[C@H](N=[N+]=[N-])[C@@H](CO)O2)c(=O)[nH]c1=O` [HT0120663, Zidovudine], the “MIC of HT0120663 in combination” value in experiment [1] (combined with 2 μg/ml of colistin) is 1 mg/L. The MIC before combination in experiment [1] worked out at 4 mg/L. For the same compound, the “time kill outcome after 6 hours” value with log phase Klebsiella (HT0120663 at 4 μg/ml, after the 6 hour kill) is “regrowth of the bacteria”. For the same compound, in the experiment on log phase Klebsiella (HT0120663 at 4 μg/ml, at 6 hours), the log kill result is given as “about 1 log”.
